pEC50, pIC50: −log10 of the molar value.
Legend:
[1] = Inhibition of Influenza A virus (A/Puerto Rico/8/1934(H1N1)) neuraminidase H259Y mutant using 4-MU-NANA as substrate preincubated for 10 mins followed by substrate addition measured after 1 hr by fluorescence assay
[2] = Antiviral activity against Influenza A virus (A/Hong Kong/498/97(H3N2)) harboring wild type neuraminidase infected in MDCK cells assessed as inhibition of viral replication preincubated for 36 hrs followed by reinfection in new monolayer of MDCK cells every 1 hr for 24 hrs; format: functional, cell-based
Influenza A virus [3] = format: functional, cell-based, A/Puerto Rico/8/1934(H1N1)
in vitro = conditions: dog, MDCK cells
Influenza A virus [4] = test: Antiviral activity against Influenza A virus (A/Puerto Rico/8/1934(H1N1)) harboring wild type neuraminidase assessed as inhibition of viral replication preincubated for 36 hrs followed by reinfection in new monolayer of MDCK cells every 1 hr for 12 hrs; format: functional

Row | SMILES | pIC50 [1] | pEC50 [2] | pEC50 (Influenza A virus [3]) | selectivity ratio (in vitro) | pEC50 (Influenza A virus [4])
1 | CCC(CC)O[C@@H]1C=C(C(=O)O)C[C@H](NC(=N)NC(=O)Cc2ccc(C)cc2)[C@H]1NC(C)=O | 6.88 | – | – | – | –
2 | CCC(CC)O[C@@H]1C=C(C(=O)O)C[C@H](NC(=N)NC(=O)c2cccc(C)c2)[C@H]1NC(C)=O | < 6.00 | – | – | – | –
3 | CCC(CC)O[C@@H]1C=C(C(=O)O)C[C@H](NC(=N)NC(=O)Cc2ccc(Br)cc2)[C@H]1NC(C)=O | 7.39 | 8.59 | 7.16 | > 14.5 | 7.89
4 | CCCCC(=O)NC(=N)N[C@H]1CC(C(=O)O)=C[C@@H](OC(CC)CC)[C@@H]1NC(C)=O | 6.79 | – | – | – | –
5 | CCC(CC)O[C@@H]1C=C(C(=O)O)C[C@H](NC(=N)NC(=O)c2ccncc2)[C@H]1NC(C)=O | 7.43 | – | – | – | –
6 | CCC(CC)O[C@@H]1C=C(C(=O)O)C[C@H](NC(=N)NC(=O)c2ccc([N+](=O)[O-])cc2)[C@H]1NC(C)=O | 7.24 | 7.41 | 6.87 | > 7.4 | 6.80
7 | CCC(CC)O[C@@H]1C=C(C(=O)O)C[C@H](NC(=N)NC(=O)Cc2ccc3ccccc3c2)[C@H]1NC(C)=O | 7.18 | 8.40 | 7.95 | > 88.6 | 8.07
8 | CCC(CC)O[C@@H]1C=C(C(=O)O)C[C@H](NC(=N)NC(=O)CCc2ccccc2)[C@H]1NC(C)=O | 6.94 | – | – | – | –
9 | CCC(CC)O[C@@H]1C=C(C(=O)O)C[C@H](NC(=N)NC(=O)C(C)C)[C@H]1NC(C)=O | 6.88 | – | – | – | –
10 | CCC(CC)O[C@@H]1C=C(C(=O)O)C[C@H](NC(=N)NC(=O)CCc2cccnc2)[C@H]1NC(C)=O | 7.68 | – | – | – | –
11 | CCC(=O)NC(=N)N[C@H]1CC(C(=O)O)=C[C@@H](OC(CC)CC)[C@@H]1NC(C)=O | 7.13 | 8.28 | 7.43 | > 26.8 | 7.62
12 | CCC(CC)O[C@@H]1C=C(C(=O)O)C[C@H](NC(=N)NC(=O)Cc2ccccc2C)[C@H]1NC(C)=O | 6.65 | – | – | – | –
13 | CCC(CC)O[C@@H]1C=C(C(=O)O)C[C@H](NC(=N)NC(=O)CCc2ccc(OC)c(OC)c2)[C@H]1NC(C)=O | 7.84 | 8.25 | 7.64 | > 43.4 | 7.70
14 | C=CCCC(=O)NC(=N)N[C@H]1CC(C(=O)O)=C[C@@H](OC(CC)CC)[C@@H]1NC(C)=O | 7.52 | 8.02 | 8.14 | > 139 | 7.61
15 | CCC(CC)O[C@@H]1C=C(C(=O)O)C[C@H](NC(=N)NC(=O)CC(C)C)[C@H]1NC(C)=O | 6.35 | – | – | – | –
16 | CCCC(=O)NC(=N)N[C@H]1CC(C(=O)O)=C[C@@H](OC(CC)CC)[C@@H]1NC(C)=O | 6.88 | – | – | – | –
17 | CCC(CC)O[C@@H]1C=C(C(=O)O)C[C@H](NC(=N)NC(=O)CCCc2ccccc2)[C@H]1NC(C)=O | 6.66 | – | – | – | –

From ChEMBL document CHEMBL4024722, “Discovery of acylguanidine oseltamivir carboxylate derivatives as potent neuraminidase inhibitors” (Bioorg Med Chem, 2017)
